# Source: ChEMBL document CHEMBL1146670, “Structure based design of a series of potent and selective non peptidic PTP-1B inhibitors” (Bioorg Med Chem Lett, 2004)
# Tests used:
# [1] = target: T1, Tyrosine-protein phosphatase non-receptor type 2 (Homo sapiens, UniProt P17706); assay: Inhibitory activity against T cell protein tyrosine phosphatase; assay type: cell-based
# T1 sequence (P17706 whole entry): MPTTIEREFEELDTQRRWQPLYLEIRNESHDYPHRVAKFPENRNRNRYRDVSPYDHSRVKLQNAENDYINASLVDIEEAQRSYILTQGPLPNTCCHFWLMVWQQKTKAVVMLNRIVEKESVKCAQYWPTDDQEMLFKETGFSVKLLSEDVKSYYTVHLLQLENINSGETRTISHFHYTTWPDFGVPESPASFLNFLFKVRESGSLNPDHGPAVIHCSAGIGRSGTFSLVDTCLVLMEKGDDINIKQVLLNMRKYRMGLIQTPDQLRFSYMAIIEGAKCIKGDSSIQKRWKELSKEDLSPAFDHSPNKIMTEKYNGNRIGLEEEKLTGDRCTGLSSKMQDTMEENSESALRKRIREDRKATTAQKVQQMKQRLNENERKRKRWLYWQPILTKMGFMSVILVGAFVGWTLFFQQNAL
# [2] = target: T2, Receptor-type tyrosine-protein phosphatase C (Homo sapiens, UniProt P08575); assay: Inhibitory activity against CD45 protein-tyrosine phosphatase
# T2 sequence (P08575 whole entry): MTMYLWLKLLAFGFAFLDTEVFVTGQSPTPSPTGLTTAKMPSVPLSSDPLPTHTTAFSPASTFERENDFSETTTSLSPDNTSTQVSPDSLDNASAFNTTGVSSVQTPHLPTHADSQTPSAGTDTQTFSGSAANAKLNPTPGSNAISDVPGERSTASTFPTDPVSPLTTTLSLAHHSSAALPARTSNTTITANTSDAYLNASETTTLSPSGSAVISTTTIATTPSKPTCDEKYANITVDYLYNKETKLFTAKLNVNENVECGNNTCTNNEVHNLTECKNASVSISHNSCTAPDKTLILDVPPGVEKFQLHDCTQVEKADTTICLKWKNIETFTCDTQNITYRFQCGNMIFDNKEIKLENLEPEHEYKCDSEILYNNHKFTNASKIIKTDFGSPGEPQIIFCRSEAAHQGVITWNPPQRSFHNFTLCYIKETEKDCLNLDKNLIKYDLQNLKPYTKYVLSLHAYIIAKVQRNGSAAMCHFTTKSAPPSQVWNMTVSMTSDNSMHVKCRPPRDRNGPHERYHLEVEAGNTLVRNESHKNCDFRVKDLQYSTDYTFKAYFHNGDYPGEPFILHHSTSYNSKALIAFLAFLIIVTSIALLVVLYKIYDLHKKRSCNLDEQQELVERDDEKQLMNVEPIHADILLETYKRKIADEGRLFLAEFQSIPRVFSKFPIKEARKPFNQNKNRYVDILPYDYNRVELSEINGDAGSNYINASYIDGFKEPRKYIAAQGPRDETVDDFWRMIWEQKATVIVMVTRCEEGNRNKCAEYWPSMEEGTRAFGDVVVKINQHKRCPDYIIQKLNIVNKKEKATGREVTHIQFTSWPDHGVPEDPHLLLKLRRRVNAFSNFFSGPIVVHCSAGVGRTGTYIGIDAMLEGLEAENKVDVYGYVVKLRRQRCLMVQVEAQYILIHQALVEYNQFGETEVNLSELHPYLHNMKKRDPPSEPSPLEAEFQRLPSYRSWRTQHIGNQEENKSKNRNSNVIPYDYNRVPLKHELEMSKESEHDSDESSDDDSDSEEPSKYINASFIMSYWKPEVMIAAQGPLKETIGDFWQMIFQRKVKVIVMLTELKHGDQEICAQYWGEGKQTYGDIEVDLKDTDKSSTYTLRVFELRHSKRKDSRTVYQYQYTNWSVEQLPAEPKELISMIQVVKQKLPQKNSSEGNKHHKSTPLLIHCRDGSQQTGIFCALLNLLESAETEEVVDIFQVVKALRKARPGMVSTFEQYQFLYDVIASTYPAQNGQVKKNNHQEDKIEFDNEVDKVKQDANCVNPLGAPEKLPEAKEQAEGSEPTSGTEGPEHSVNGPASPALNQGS
# [3] = target: T3, Tyrosine-protein phosphatase non-receptor type 1 (Homo sapiens, UniProt P18031); assay: Inhibitory activity against protein tyrosine phosphatase 1B (PTP1B) was determined in fluorescein diphosphate (FDP) assay
# T3 sequence (P18031 whole entry): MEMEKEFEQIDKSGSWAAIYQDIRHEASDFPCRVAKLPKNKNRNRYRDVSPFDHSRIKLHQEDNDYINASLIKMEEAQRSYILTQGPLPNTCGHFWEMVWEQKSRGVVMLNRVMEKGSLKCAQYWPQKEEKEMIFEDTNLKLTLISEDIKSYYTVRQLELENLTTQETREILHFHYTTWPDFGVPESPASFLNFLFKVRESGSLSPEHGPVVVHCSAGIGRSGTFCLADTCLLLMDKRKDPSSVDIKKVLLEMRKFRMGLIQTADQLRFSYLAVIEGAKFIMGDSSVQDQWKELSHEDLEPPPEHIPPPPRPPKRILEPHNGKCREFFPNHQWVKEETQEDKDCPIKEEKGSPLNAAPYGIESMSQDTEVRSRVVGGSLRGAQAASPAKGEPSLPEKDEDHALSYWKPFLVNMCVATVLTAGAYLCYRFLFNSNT
# [4] = target: T3, Tyrosine-protein phosphatase non-receptor type 1; assay: Inhibitory activity against Protein tyrosine phosphatase 1B (PTP1B) over-expressed in intact Sf9 cell assay
Structure (SMILES),IC50 [1] [nM],IC50 [2] [nM],IC50 [3] [nM],IC50 [4] [nM]
O=P(O)(O)C(F)(F)c1ccc(CC(Cc2ccc(C(F)(F)P(=O)(O)O)cc2)(c2ccc(F)c(F)c2)n2nnc3ccccc32)cc1,8,50000,,
O=C(OCc1ccccc1)C(Cc1ccc(C(F)(F)P(=O)(O)O)cc1)(c1ccccc1)n1nnc2ccccc21 (stereo unspecified),290,50000,240,1700
O=P(O)(O)C(F)(F)c1ccc(CC(Cc2ccc(C(F)(F)P(=O)(O)O)c(Br)c2)(c2ccccc2)n2nnc3ccccc32)cc1 (stereo unspecified),4,25000,5,160
COC(=O)c1ccc(C(Cc2ccc(C(F)(F)P(=O)(O)O)cc2)(Cc2ccc(C(F)(F)P(=O)(O)O)cc2)n2nnc3ccccc32)cc1,16,50000,11,84
O=P(O)(O)C(F)(F)c1ccc(CC(Cc2ccc(C(F)(F)P(=O)(O)O)cc2)(c2ccc3ccccc3n2)n2nnc3ccccc32)cc1,28,50000,20,62
O=P(O)(O)C(F)(F)c1ccc(/C=C/CC(Cc2ccc(C(F)(F)P(=O)(O)O)cc2)(c2ccccc2)n2nnc3ccccc32)cc1 (stereo unspecified),10,50000,16,120
O=P(O)(O)C(F)(F)c1ccc(CC(Cc2ccc(C(F)(F)P(=O)(O)O)cc2)(c2nnn[nH]2)n2nnc3ccccc32)cc1,16,7200,32,1200
O=P(O)(O)C(F)(F)c1ccc(CC(Cc2ccc(C(F)(F)P(=O)(O)O)cc2)(c2nc3ccccc3s2)n2nnc3ccccc32)cc1,20,11000,18,88
O=P(O)(O)C(F)(F)c1ccc(CC(c2ccccc2)n2nnc3ccccc32)cc1 (stereo unspecified),7260,> 50000,8040,
O=P(O)(O)C(F)(F)c1ccc(CC(Cc2ccc(C(F)(F)P(=O)(O)O)cc2)(c2nc(-c3ccccc3)cs2)n2nnc3ccccc32)cc1,18,50000,19,190
COC(CC(C)C)c1ccc2cc(-c3ccc(CC(Cc4ccc(C(F)(F)P(=O)(O)O)cc4)(c4ccccc4)n4nnc5ccccc54)cc3)cc(P(=O)(O)O)c2n1 (stereo in doubt; 21a),,50000,,
COC(CC(C)C)c1ccc2cc(-c3ccc(CC(Cc4ccc(C(F)(F)P(=O)(O)O)cc4)(c4ccccc4)n4nnc5ccccc54)cc3)cc(P(=O)(O)O)c2n1 (stereo in doubt; 21b),41,50000,,
COC(CC(C)C)c1ccc2cc(-c3ccc(CC(Cc4ccc(C(F)(F)P(=O)(O)O)cc4)(c4ccccc4)n4nnc5ccccc54)cc3)cc(P(=O)(O)O)c2n1 (stereo in doubt; 21c),1130,50000,,
COC(CC(C)C)c1ccc2cc(-c3ccc(CC(Cc4ccc(C(F)(F)P(=O)(O)O)cc4)(c4ccccc4)n4nnc5ccccc54)cc3)cc(P(=O)(O)O)c2n1 (stereo in doubt; 21d),930,32000,,

# The remaining lines, values ahead:
IC50 [1] [nM],IC50 [2] [nM],IC50 [3] [nM],IC50 [4] [nM],Structure (SMILES)
,69000,,1600,O=P(O)(O)C(F)(F)c1ccc(CC(Cc2ccc(-c3ccccc3)cc2)(c2ccccc2)n2nnc3ccccc32)cc1 (stereo unspecified)
,50000,,220,Cc1ccc2cc(-c3ccc(CC(Cc4ccc(C(F)(F)P(=O)(O)O)cc4)(c4ccccc4)n4nnc5ccccc54)cc3)cc(P(=O)(O)O)c2n1 (stereo unspecified)
,50000,,,O=P(O)(O)c1cccc(-c2ccc(CC(Cc3ccc(C(F)(F)P(=O)(O)O)cc3)(c3ccccc3)n3nnc4ccccc43)cc2)c1 (stereo unspecified)
10,50000,,120,O=P(O)(O)C(F)(F)c1ccc(CC(Cc2ccc(C(F)(F)P(=O)(O)O)cc2)(c2ccccc2)n2nnc3ccccc32)cc1
85,50000,74,370,O=P(O)(O)C(F)(F)c1ccc(CC(Cc2ccc(-c3ccccc3-c3nn[nH]n3)cc2)(c2ccccc2)n2nnc3ccccc32)cc1 (stereo unspecified)
49,50000,49,460,O=P(O)(O)C(F)(F)c1ccc(CC(C/C=C/c2ccccc2)(c2ccccc2)n2nnc3ccccc32)cc1 (stereo unspecified)
82,50000,69,930,NS(=O)(=O)c1ccccc1-c1ccc(CC(Cc2ccc(C(F)(F)P(=O)(O)O)cc2)(c2ccccc2)n2nnc3ccccc32)cc1 (stereo unspecified)
72,30000,46,650,O=P(O)(O)C(F)(F)c1ccc(CC(CCCc2ccccc2)(c2ccccc2)n2nnc3ccccc32)cc1 (stereo unspecified)
92,17000,89,1600,O=P(O)(O)C(F)(F)c1ccc(CC(Cc2ccc(Br)cc2)(c2ccccc2)n2nnc3ccccc32)cc1 (stereo unspecified)
62,64000,98,4070,O=P(O)(O)C(F)(F)c1ccc(CC(Cc2ccc(OCc3ccccc3)cc2)(c2ccccc2)n2nnc3ccccc32)cc1 (stereo unspecified)
